Experimental data published in patent US6706740B2, “Fungicidal heterocyclic aromatic amides and their compositions, methods of use and preparation” (Dow AgroSciences LLC, priority 1999, dated 2004).

Tested on: Magnaporthe grisea (Pyricularia oryzae—PYRIOR)
Experiment: microbe, parasite or virus in culture
Assay type: cell-based
Conditions: Pyricularia oryzae, read-out: PYRIOR in vitro Growth Inhibition

Row | Compound | inhibition at 25 ppm [%]
1 | COc1ccnc(C(=O)NC2CC(C)(C)CC(C)(C3CC3)C2)c1OC(C)=O (centres unmarked) [Compound 573] | < 80
2 | CC1(C)CC(NC(=O)c2ncccc2O)CC(C)(C)C1=O [Compound 205] | < 80
3 | COc1ccnc(C(=O)NC2CC(C)(C)C(OC)C(C)(C)C2)c1O (centres unmarked) [Compound 265] | < 80
4 | O=C(NCCc1ccc(Cl)cc1)c1ncccc1O [Compound 233, N-(2-(4-CHLOROPHENYL)ETHYL)-3-HYDROXYPYRIDINE-2-CARBOXAMIDE] | > 80

Tested on: Rhizoctonia solani (RHIZSO)
Experiment: microbe, parasite or virus in culture
Assay type: cell-based
Conditions: Rhizoctonia solani, read-out: RHIZSO in vitro Growth Inhibition

Row | Compound | inhibition at 25 ppm [%]
5 | COc1ccnc(C(=O)NC2CC(C)(C)CC(C)(C3CC3)C2)c1OC(C)=O (centres unmarked) [Compound 573] | < 80
6 | CC1(C)CC(NC(=O)c2ncccc2O)CC(C)(C)C1=O [Compound 205] | < 80
7 | COc1ccnc(C(=O)NC2CC(C)(C)C(OC)C(C)(C)C2)c1O (centres unmarked) [Compound 265] | < 80
8 | O=C(NCCc1ccc(Cl)cc1)c1ncccc1O [Compound 233, N-(2-(4-CHLOROPHENYL)ETHYL)-3-HYDROXYPYRIDINE-2-CARBOXAMIDE] | < 80

Tested on: Mycosphaerella graminicola (Septoria tritici—SEPTTR)
Experiment: In vitro fungal growth inhibition, Mycosphaerella graminicola (SEPTTR)
Assay type: cell-based
Conditions: Zymoseptoria tritici; 25 ppm in growth medium; read-out: SEPTTR in vitro Growth Inhibition

Row | Compound | inhibition at 25 ppm [%]
9 | CC1(C)CC(NC(=O)c2ncccc2O)CC(C)(C)C1=O [Compound 205] | < 80
10 | COc1ccnc(C(=O)NC2CC(C)(C)C(OC)C(C)(C)C2)c1O (centres unmarked) [Compound 265] | < 80
11 | O=C(NCCc1ccc(Cl)cc1)c1ncccc1O [Compound 233, N-(2-(4-CHLOROPHENYL)ETHYL)-3-HYDROXYPYRIDINE-2-CARBOXAMIDE] | > 80

Same assay, conditions: Zymoseptoria tritici; 25 ppm in the growth medium; read-out: SEPTTR in vitro Growth Inhibition

Row | Compound | inhibition at 25 ppm [%]
12 | COc1ccnc(C(=O)NC2CC(C)(C)CC(C)(C3CC3)C2)c1OC(C)=O (centres unmarked) [Compound 573] | < 80

Tested on: Stagonospora nodorum (Leptosphaeria nodorum—LEPTNO)
Experiment: In vitro fungal growth inhibition, Stagonospora nodorum (LEPTNO)
Assay type: cell-based
Conditions: Leptosphaeria; 25 ppm in growth medium; read-out: LEPTNO in vitro Growth Inhibition

Row | Compound | inhibition at 25 ppm [%]
13 | CC1(C)CC(NC(=O)c2ncccc2O)CC(C)(C)C1=O [Compound 205] | < 80
14 | COc1ccnc(C(=O)NC2CC(C)(C)C(OC)C(C)(C)C2)c1O (centres unmarked) [Compound 265] | < 80
15 | O=C(NCCc1ccc(Cl)cc1)c1ncccc1O [Compound 233, N-(2-(4-CHLOROPHENYL)ETHYL)-3-HYDROXYPYRIDINE-2-CARBOXAMIDE] | > 80

Same assay, conditions: Leptosphaeria; 25 ppm in the growth medium; read-out: LEPTNO in vitro Growth Inhibition

Row | Compound | inhibition at 25 ppm [%]
16 | COc1ccnc(C(=O)NC2CC(C)(C)CC(C)(C3CC3)C2)c1OC(C)=O (centres unmarked) [Compound 573] | > 80

Tested on: Ustilago maydis (USTIMA)
Experiment: microbe, parasite or virus in culture
Assay type: cell-based
Conditions: Mycosarcoma maydis, read-out: USTIMA in vitro Growth Inhibition

Row | Compound | inhibition at 25 ppm [%]
17 | COc1ccnc(C(=O)NC2CC(C)(C)CC(C)(C3CC3)C2)c1OC(C)=O (centres unmarked) [Compound 573] | < 80
18 | CC1(C)CC(NC(=O)c2ncccc2O)CC(C)(C)C1=O [Compound 205] | < 80
19 | COc1ccnc(C(=O)NC2CC(C)(C)C(OC)C(C)(C)C2)c1O (centres unmarked) [Compound 265] | < 80
20 | O=C(NCCc1ccc(Cl)cc1)c1ncccc1O [Compound 233, N-(2-(4-CHLOROPHENYL)ETHYL)-3-HYDROXYPYRIDINE-2-CARBOXAMIDE] | > 80

Tested on: Phytophthora infestans (PHYTIN)
Experiment: microbe, parasite or virus in culture
Assay type: cell-based
Conditions: Phytophthora infestans, read-out: PHYTIN in vitro Growth Inhibition

Row | Compound | inhibition at 25 ppm [%]
21 | COc1ccnc(C(=O)NC2CC(C)(C)CC(C)(C3CC3)C2)c1OC(C)=O (centres unmarked) [Compound 573] | < 80
22 | CC1(C)CC(NC(=O)c2ncccc2O)CC(C)(C)C1=O [Compound 205] | < 80
23 | COc1ccnc(C(=O)NC2CC(C)(C)C(OC)C(C)(C)C2)c1O (centres unmarked) [Compound 265] | < 80
24 | O=C(NCCc1ccc(Cl)cc1)c1ncccc1O [Compound 233, N-(2-(4-CHLOROPHENYL)ETHYL)-3-HYDROXYPYRIDINE-2-CARBOXAMIDE] | > 80

Tested on: Phytophthora infestans—PHYTIN
Experiment: whole plant or invertebrate
Assay type: in vivo
Conditions: Phytophthora, in Solanum lycopersicum, 24 h, read-out: PHYTIN in vivo 1 Day Protectant

Row | Compound | pest or weed control at 100 ppm [%]
25 | COc1ccnc(C(=O)NC2CC(C)(C)CC(C)(C3CC3)C2)c1OC(C)=O (centres unmarked) [Compound 573] | < 25
26 | CC1(C)CC(NC(=O)c2ncccc2O)CC(C)(C)C1=O [Compound 205] | < 25
27 | COc1ccnc(C(=O)NC2CC(C)(C)C(OC)C(C)(C)C2)c1O (centres unmarked) [Compound 265] | < 25
28 | O=C(NCCc1ccc(Cl)cc1)c1ncccc1O [Compound 233, N-(2-(4-CHLOROPHENYL)ETHYL)-3-HYDROXYPYRIDINE-2-CARBOXAMIDE] | < 25

Tested on: Puccinia recondita—PUCCRT
Experiment: Brown Rust of Wheat, in vivo whole plant, 24 Hour Protectant
Conditions: Puccinia; 100 ppm spray, 24 hour protectant, wheat; control of fungal infection vs untreated plants; read-out: PUCCRT in vivo 1 Day Protectant

Row | Compound | pest or weed control at 100 ppm [%]
29 | CC1(C)CC(NC(=O)c2ncccc2O)CC(C)(C)C1=O [Compound 205] | < 25
30 | COc1ccnc(C(=O)NC2CC(C)(C)C(OC)C(C)(C)C2)c1O (centres unmarked) [Compound 265] | < 25
31 | O=C(NCCc1ccc(Cl)cc1)c1ncccc1O [Compound 233, N-(2-(4-CHLOROPHENYL)ETHYL)-3-HYDROXYPYRIDINE-2-CARBOXAMIDE] | < 25

Same assay, conditions: wheat plants sprayed at 100 ppm, inoculated after 24 hours; control of fungal infection vs untreated plants

Row | Compound | PUCCRT in vivo 1 Day Protectant
32 | COc1ccnc(C(=O)NC2CC(C)(C)CC(C)(C3CC3)C2)c1OC(C)=O (centres unmarked) [Compound 573] | + +

Tested on: Erysiphe graminis—ERYSGT
Experiment: Powdery Mildew of Wheat, in vivo whole plant, 24 Hour Protectant
Conditions: Erysiphe; 100 ppm spray, 24 hour protectant, wheat; control of fungal infection vs untreated plants; read-out: ERYSGT in vivo 1 Day Protectant

Row | Compound | pest or weed control at 100 ppm [%]
33 | CC1(C)CC(NC(=O)c2ncccc2O)CC(C)(C)C1=O [Compound 205] | < 25
34 | COc1ccnc(C(=O)NC2CC(C)(C)C(OC)C(C)(C)C2)c1O (centres unmarked) [Compound 265] | 25 to 74
35 | O=C(NCCc1ccc(Cl)cc1)c1ncccc1O [Compound 233, N-(2-(4-CHLOROPHENYL)ETHYL)-3-HYDROXYPYRIDINE-2-CARBOXAMIDE] | < 25

Same assay, conditions: Erysiphe; wheat plants sprayed at 100 ppm, inoculated after 24 hours; control of fungal infection vs untreated plants; read-out: ERYSGT in vivo 1 Day Protectant

Row | Compound | pest or weed control at 100 ppm [%]
36 | COc1ccnc(C(=O)NC2CC(C)(C)CC(C)(C3CC3)C2)c1OC(C)=O (centres unmarked) [Compound 573] | < 25

Tested on: Septoria tritici—SEPTTR
Experiment: Leaf Blotch of Wheat, in vivo whole plant, 24 Hour Protectant
Conditions: Zymoseptoria tritici, 24 h, 100 ppm spray, 24 hour protectant, wheat; control of fungal infection vs untreated plants; read-out: SEPTTR in vivo 1 Day Protectant

Row | Compound | pest or weed control at 100 ppm [%]
37 | CC1(C)CC(NC(=O)c2ncccc2O)CC(C)(C)C1=O [Compound 205] | < 25
38 | COc1ccnc(C(=O)NC2CC(C)(C)C(OC)C(C)(C)C2)c1O (centres unmarked) [Compound 265] | 25 to 74
39 | O=C(NCCc1ccc(Cl)cc1)c1ncccc1O [Compound 233, N-(2-(4-CHLOROPHENYL)ETHYL)-3-HYDROXYPYRIDINE-2-CARBOXAMIDE] | 25 to 74

Same assay, conditions: Zymoseptoria tritici, 24 h, wheat plants sprayed at 100 ppm, inoculated after 24 hours; control of fungal infection vs untreated plants; read-out: SEPTTR in vivo 1 Day Protectant

Row | Compound | pest or weed control at 100 ppm [%]
40 | COc1ccnc(C(=O)NC2CC(C)(C)CC(C)(C3CC3)C2)c1OC(C)=O (centres unmarked) [Compound 573] | 25 to 74

Tested on: Leptosphaeria nodorum—LEPTNO
Experiment: Glume Blotch of Wheat, in vivo whole plant, 24 Hour Protectant
Conditions: Leptosphaeria; 100 ppm spray, 24 hour protectant, wheat; control of fungal infection vs untreated plants; read-out: LEPTNO in vivo 1 Day Protectant

Row | Compound | pest or weed control at 100 ppm [%]
41 | CC1(C)CC(NC(=O)c2ncccc2O)CC(C)(C)C1=O [Compound 205] | < 25
42 | COc1ccnc(C(=O)NC2CC(C)(C)C(OC)C(C)(C)C2)c1O (centres unmarked) [Compound 265] | 25 to 74
43 | O=C(NCCc1ccc(Cl)cc1)c1ncccc1O [Compound 233, N-(2-(4-CHLOROPHENYL)ETHYL)-3-HYDROXYPYRIDINE-2-CARBOXAMIDE] | < 25

Same assay, conditions: wheat plants sprayed at 100 ppm, inoculated after 24 hours; control of fungal infection vs untreated plants

Row | Compound | LEPTNO in vivo 1 Day Protectant
44 | COc1ccnc(C(=O)NC2CC(C)(C)CC(C)(C3CC3)C2)c1OC(C)=O (centres unmarked) [Compound 573] | + +
